Results as given in ChEMBL document CHEMBL3120099, “Novel S1P(1) receptor agonists--part 2: from bicyclo[3.1.0]hexane-fused thiophenes to isobutyl substituted thiophenes” (J Med Chem, 2014).

target: Sphingosine 1-phosphate receptor 1 (Homo sapiens, UniProt P21453); assay: Agonist activity at human recombinant S1P1 receptor expressed in CHO cells assessed as membrane-bound 35S-GTPgammaS incubated 30 mins prior to substrate addition measured after 1 hr by topcount scintillation counting analysis; assay type: functional, cell-based
Sequence (P21453 whole entry): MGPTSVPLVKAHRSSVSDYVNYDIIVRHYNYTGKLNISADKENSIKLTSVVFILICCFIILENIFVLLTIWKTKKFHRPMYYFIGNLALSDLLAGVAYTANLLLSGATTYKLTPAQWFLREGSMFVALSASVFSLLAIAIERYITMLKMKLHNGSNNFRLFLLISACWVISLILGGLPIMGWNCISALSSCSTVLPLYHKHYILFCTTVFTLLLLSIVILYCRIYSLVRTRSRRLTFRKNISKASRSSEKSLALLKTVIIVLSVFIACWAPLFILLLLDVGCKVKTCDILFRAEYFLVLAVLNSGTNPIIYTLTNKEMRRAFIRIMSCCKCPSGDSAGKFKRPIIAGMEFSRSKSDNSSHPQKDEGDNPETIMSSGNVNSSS

| SMILES | EC50 |
| --- | --- |
| CCc1cc(-c2noc(-c3sc(OC)c4c3CCC(C)(C)C4)n2)cc(C)c1OC[C@@H](O)CNC(=O)CO | 1.8 nM |
| CCc1sc(C(=O)CCc2cc(C)c(OC[C@@H](O)CO)c(C)c2)c2c1CCCC2 | 20 nM |
| Cc1cc(CCC(=O)c2sc(C)c3c2CCC(C)(C)C3)cc(C)c1OCCNCCO | 11 nM |
| Cc1cc(CCC(=O)c2sc(C)c3c2CCC(C)(C)C3)cc(C)c1OCC(O)CNCCC(=O)O (racemic) | 1.2 nM |
| CCCc1sc(-c2nc(-c3cc(C)c(OC[C@@H](O)CNC(=O)CO)c(CC)c3)no2)c2c1CC(C)(C)CC2 | 20 nM |
| CCc1cc(CCC(=O)c2sc(C)c3c2CCC(C)(C)C3)cc(C)c1OCC(O)CNC(=O)CO (racemic) | 1.2 nM |
| CCc1cc(-c2noc(-c3sc(CC)c4c3CCC(CC)(CC)C4)n2)cc(C)c1OC[C@@H](O)CNC(=O)CO | 6 nM |
| CCc1cc(CCC(=O)c2sc(OC)c3c2CCC(C)(C)C3)cc(C)c1OCC(O)CNC(=O)CO (racemic) | 1.3 nM |
| CCc1sc(C(=O)CCc2cc(C)c(OC[C@@H](O)CO)c(C)c2)c2c1CC(CC)(CC)CC2 | 0.4 nM |
| Cc1cc(CCC(=O)c2sc(C)c(CC(C)C)c2C)cc(C)c1OCC(O)CNC(=O)CO (racemic) | 2.7 nM |
| CCc1sc(C(=O)CCc2cc(C)c(OCC(O)CO)c(C)c2)c2c1CC(C)CC2 (mixture of isomers) | 1.6 nM |
| CCc1sc(C(=O)CCc2cc(C)c(OCC(O)CO)c(C)c2)c2c1C[C@@](C)(O)CC2 (mixture of isomers) | 79 nM |

The remaining lines, values ahead:

| EC50 | SMILES |
| --- | --- |
| 1.1 nM | CCc1sc(C(=O)CCc2cc(C)c(OC[C@@H](O)CO)c(C)c2)c2c1CC1(CC2)CC1 |
| 1.5 nM | CCc1cc(-c2noc(-c3sc(C)c4c3CCC(C)(C)C4)n2)cc(C)c1OCC(O)CNC(=O)CO (racemic) |
| 860 nM | CCc1sc(C(=O)CCc2cc(C)c(OCC(O)CO)c(C)c2)c2c1C[C@@H](O)CC2 (mixture of isomers) |
| 1.3 nM | CCc1cc(CCC(=O)c2sc(C(F)(F)F)c3c2CCC(C)(C)C3)cc(C)c1OCC(O)CNC(=O)CO (racemic) |
| 6.1 nM | Cc1cc(CCC(=O)c2sc(C)c3c2CCC(C)(C)C3)cc(C)c1OCCN |
| 0.5 nM | Cc1cc(CCC(=O)c2sc(C)c3c2CCC(C)(C)C3)cc(C)c1OCC(O)CNC(=O)CO (racemic) |
| 19 nM | Cc1cc(CCC(=O)c2sc(C)c3c2CCC(C)(C)C3)cc(C)c1OCCO |
| 48 nM | Cc1cc(CCC(=O)c2sc(C)c3c2CCC(C)(C)C3)cc(C)c1OCCCNCCO |
| 1600 nM | CCc1sc(C(=O)CCc2cc(C)c(OCC(O)CO)c(C)c2)c2c1C[C@@H](N(C)C)CC2 (mixture of isomers) |
| 21 nM | Cc1cc(CCC(=O)c2sc(C)c3c2CCC(C)(C)C3)cc(C)c1CCC(=O)O |
| 0.9 nM | CCc1cc(-c2noc(-c3sc(CC)c4c3CCCC4)n2)cc(C)c1OC[C@@H](O)CNC(=O)CO |
| 4.3 nM | Cc1cc(CCC(=O)c2sc(C)c3c2CCC(C)(C)C3)cc(C)c1OCC(O)CN1CC(C(=O)O)C1 (racemic) |
| 4.7 nM | CCc1cc(-c2noc(-c3sc(CC)c4c3CCC3(CCCC3)C4)n2)cc(C)c1OC[C@@H](O)CNC(=O)CO |
| 7.7 nM | Cc1cc(CCC(=O)c2ccc(CC(C)C)s2)cc(C)c1OCC(O)CNC(=O)CO (racemic) |
| 0.4 nM | CCc1sc(C(=O)CCc2cc(C)c(OC[C@@H](O)CO)c(C)c2)c2c1CC(C)(C)CC2 |

target: Sphingosine 1-phosphate receptor 3 (Homo sapiens, UniProt Q99500); assay: Agonist activity at human recombinant S1P3 receptor expressed in CHO cells assessed as membrane-bound 35S-GTPgammaS incubated 30 mins prior to substrate addition measured after 1 hr by topcount scintillation counting analysis; assay type: functional, cell-based
Sequence (Q99500 whole entry): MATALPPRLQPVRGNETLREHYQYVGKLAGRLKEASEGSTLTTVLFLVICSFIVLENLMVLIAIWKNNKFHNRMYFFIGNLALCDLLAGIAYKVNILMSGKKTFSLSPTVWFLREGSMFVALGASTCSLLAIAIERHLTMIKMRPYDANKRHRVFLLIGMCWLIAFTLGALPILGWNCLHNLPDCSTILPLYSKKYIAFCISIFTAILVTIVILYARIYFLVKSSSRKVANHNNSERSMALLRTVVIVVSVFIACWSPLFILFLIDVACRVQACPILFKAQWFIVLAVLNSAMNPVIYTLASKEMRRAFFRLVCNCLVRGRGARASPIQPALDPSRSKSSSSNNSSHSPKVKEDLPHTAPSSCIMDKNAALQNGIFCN

| SMILES | EC50 |
| --- | --- |
| CCc1cc(-c2noc(-c3sc(OC)c4c3CCC(C)(C)C4)n2)cc(C)c1OC[C@@H](O)CNC(=O)CO | 83 nM |
| CCc1sc(C(=O)CCc2cc(C)c(OC[C@@H](O)CO)c(C)c2)c2c1CCCC2 | 3830 nM |
| Cc1cc(CCC(=O)c2sc(C)c3c2CCC(C)(C)C3)cc(C)c1OCCNCCO | > 10000 nM |
| Cc1cc(CCC(=O)c2sc(C)c3c2CCC(C)(C)C3)cc(C)c1OCC(O)CNCCC(=O)O (racemic) | 569 nM |
| CCCc1sc(-c2nc(-c3cc(C)c(OC[C@@H](O)CNC(=O)CO)c(CC)c3)no2)c2c1CC(C)(C)CC2 | 11 nM |
| CCc1cc(CCC(=O)c2sc(C)c3c2CCC(C)(C)C3)cc(C)c1OCC(O)CNC(=O)CO (racemic) | 4420 nM |
| CCc1cc(-c2noc(-c3sc(CC)c4c3CCC(CC)(CC)C4)n2)cc(C)c1OC[C@@H](O)CNC(=O)CO | 1.2 nM |
| CCc1cc(CCC(=O)c2sc(OC)c3c2CCC(C)(C)C3)cc(C)c1OCC(O)CNC(=O)CO (racemic) | 3910 nM |
| CCc1sc(C(=O)CCc2cc(C)c(OC[C@@H](O)CO)c(C)c2)c2c1CC(CC)(CC)CC2 | 25 nM |
| Cc1cc(CCC(=O)c2sc(C)c(CC(C)C)c2C)cc(C)c1OCC(O)CNC(=O)CO (racemic) | 5270 nM |
| CCc1sc(C(=O)CCc2cc(C)c(OCC(O)CO)c(C)c2)c2c1CC(C)CC2 (mixture of isomers) | 599 nM |
| CCc1sc(C(=O)CCc2cc(C)c(OCC(O)CO)c(C)c2)c2c1C[C@@](C)(O)CC2 (mixture of isomers) | > 10000 nM |

Now from value to molecule:

| EC50 | SMILES |
| --- | --- |
| 819 nM | CCc1sc(C(=O)CCc2cc(C)c(OC[C@@H](O)CO)c(C)c2)c2c1CC1(CC2)CC1 |
| 122 nM | CCc1cc(-c2noc(-c3sc(C)c4c3CCC(C)(C)C4)n2)cc(C)c1OCC(O)CNC(=O)CO (racemic) |
| > 10000 nM | CCc1sc(C(=O)CCc2cc(C)c(OCC(O)CO)c(C)c2)c2c1C[C@@H](O)CC2 (mixture of isomers) |
| 242 nM | CCc1cc(CCC(=O)c2sc(C(F)(F)F)c3c2CCC(C)(C)C3)cc(C)c1OCC(O)CNC(=O)CO (racemic) |
| 8560 nM | Cc1cc(CCC(=O)c2sc(C)c3c2CCC(C)(C)C3)cc(C)c1OCCN |
| 392 nM | Cc1cc(CCC(=O)c2sc(C)c3c2CCC(C)(C)C3)cc(C)c1OCC(O)CNC(=O)CO (racemic) |
| 4450 nM | Cc1cc(CCC(=O)c2sc(C)c3c2CCC(C)(C)C3)cc(C)c1OCCO |
| > 10000 nM | Cc1cc(CCC(=O)c2sc(C)c3c2CCC(C)(C)C3)cc(C)c1OCCCNCCO |
| > 10000 nM | CCc1sc(C(=O)CCc2cc(C)c(OCC(O)CO)c(C)c2)c2c1C[C@@H](N(C)C)CC2 (mixture of isomers) |
| > 10000 nM | Cc1cc(CCC(=O)c2sc(C)c3c2CCC(C)(C)C3)cc(C)c1CCC(=O)O |
| 172 nM | CCc1cc(-c2noc(-c3sc(CC)c4c3CCCC4)n2)cc(C)c1OC[C@@H](O)CNC(=O)CO |
| 1760 nM | Cc1cc(CCC(=O)c2sc(C)c3c2CCC(C)(C)C3)cc(C)c1OCC(O)CN1CC(C(=O)O)C1 (racemic) |
| 11 nM | CCc1cc(-c2noc(-c3sc(CC)c4c3CCC3(CCCC3)C4)n2)cc(C)c1OC[C@@H](O)CNC(=O)CO |
| 590 nM | Cc1cc(CCC(=O)c2ccc(CC(C)C)s2)cc(C)c1OCC(O)CNC(=O)CO (racemic) |
| 126 nM | CCc1sc(C(=O)CCc2cc(C)c(OC[C@@H](O)CO)c(C)c2)c2c1CC(C)(C)CC2 |
